From patent US7268149B2 (Wyeth, priority 2002, dated 2007)
Values joined by “and” are separate entries in the source; they are usually repeats but may differ in a detail not shown here. Identical values can stand only once.

Assays:
androgen receptor (AR) = molecular target: T1, androgen receptor (AR) (Mus musculus, UniProt P19091); experiment: Androgen receptor agonistic/antagonistic activity, PRE-tk-luciferase reporter in L929 cells; type: cell-based
T1 construct: L929 cells which express the AR but not the PR; endogenous in cells; host or cells: L929 cells infected with an adenovirus PRE-tk-luciferase reporter
T1 sequence (P19091 1-899): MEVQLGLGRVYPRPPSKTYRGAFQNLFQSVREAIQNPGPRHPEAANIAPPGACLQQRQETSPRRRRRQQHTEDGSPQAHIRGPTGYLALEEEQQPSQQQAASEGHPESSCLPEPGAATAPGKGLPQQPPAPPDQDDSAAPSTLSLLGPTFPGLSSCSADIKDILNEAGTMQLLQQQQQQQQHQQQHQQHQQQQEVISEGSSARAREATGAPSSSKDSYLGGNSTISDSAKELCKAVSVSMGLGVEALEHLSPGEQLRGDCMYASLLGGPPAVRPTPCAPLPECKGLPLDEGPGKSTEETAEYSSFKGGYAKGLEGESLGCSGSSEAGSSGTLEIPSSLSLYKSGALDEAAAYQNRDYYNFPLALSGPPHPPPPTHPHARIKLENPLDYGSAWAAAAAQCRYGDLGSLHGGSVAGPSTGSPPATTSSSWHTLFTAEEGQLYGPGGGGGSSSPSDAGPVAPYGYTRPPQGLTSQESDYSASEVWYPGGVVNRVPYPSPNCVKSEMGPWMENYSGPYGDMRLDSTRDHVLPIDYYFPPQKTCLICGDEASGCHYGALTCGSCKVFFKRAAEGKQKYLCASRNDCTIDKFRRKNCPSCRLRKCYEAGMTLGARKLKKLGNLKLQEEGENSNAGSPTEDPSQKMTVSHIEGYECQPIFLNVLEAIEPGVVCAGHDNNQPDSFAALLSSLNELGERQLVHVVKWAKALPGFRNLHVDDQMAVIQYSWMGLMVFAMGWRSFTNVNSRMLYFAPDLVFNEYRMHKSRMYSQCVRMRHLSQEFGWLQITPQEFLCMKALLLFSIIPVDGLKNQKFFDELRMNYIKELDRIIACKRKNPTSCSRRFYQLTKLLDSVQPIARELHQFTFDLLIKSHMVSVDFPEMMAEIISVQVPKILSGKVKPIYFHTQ
Procedure: The androgen receptor (AR) agonistic and antagonistic activity of the compositions of the invention in the L929 cells which express the AR but not the PR was evaluated as described in Zhang et al., Steroids, 65(10-11): 637-643 (October-November 2000).
Cells were plated in 96-well plates at 25,000 cells/well in DMEM (BioWhittaker) with 10% (v/v) fetal bovine serum (FBS). The next day, cells were infected with the adenovirus PRE-tk-luciferase reporter construct (2×10^9 pfu/ml particles) and kept in DMEM containing 10% charcoal stripped FBS for an additional 24 hours. […] To test the anti-androgenic activity, cells were co-treated with 3 nM DHT. Luciferase activity was measured 24 hours following the treatment.

acne vulgaris = experiment: Treatment of acne vulgaris in a human patient; type: in vivo; details: oral tablet about 20 mg daily
Procedure: A human patient having acne vulgaris is treated according to the present invention. Specifically, 5-(4,4-dimethyl-2-thioxo-1,4-dihydro-2H-3,1-benzoxazin-6-yl)-1-methyl-1H-pyrrole-2-carbonitrile is orally delivered to the patient daily. Delivery is in the form of a tablet formulated to contain about 20 mg of 5-(4,4-dimethyl-2-thioxo-1,4-dihydro-2H-3,1-benzoxazin-6-yl)-1-methyl-1H-pyrrole-2-carbonitrile.

eczema = experiment: Conditioning the skin of a human patient with severe eczema; type: in vivo; details: about 50 mg daily
Procedure: A human patient having a severe form of eczema is treated according to the present invention. Specifically, about 50 mg of 5-(4,4-dimethyl-2-thioxo-1,4-dihydro-2H-3,1-benzoxazin-6-yl)-1-methyl-1H-pyrrole-2-carbonitrile is delivered to the patient daily.

[1] = system: alkaline phosphatase activity in T47D cells; experiment: T47D cell alkaline phosphatase assay; type: cell-based; details: Homo sapiens, agonist mode, read-out: EC50 in the T47D alkaline phosphatase assay, test compounds
Procedure: 4. T47D Cell Alkaline Phosphatase Assay
The purpose of this assay is to identify progestins or antiprogestins by determining a compound's effect on alkaline phosphatase activity in T47D cells.
a. Culture Medium: DMEM:F12 (1:1) (GIBCO, BRL) supplemented with 5% (v/v) charcoal stripped fetal bovine serum (not heat-inactivated), 100 U/ml penicillin, 100 μg/ml streptomycin, and 2 mM GlutaMax (GIBCO, BRL).
b. Alkaline Phosphatase Assay Buffer:
I. 0.1 M Tris-HCl, pH 9.8, containing 0.2% Triton X-100
II. 0.1 M Tris-HCl, pH 9.8 containing 4 mM p-nitrophenyl phosphate (Sigma).
c. Cell Culture and Treatment:
Frozen T47D cells were thawed in a 37° C. water bath and diluted to 280,000 cells/ml in culture medium. To each well in a 96-well plate (Falcon, Becton Dickinson Labware), 180 μl of diluted cell suspension was added. Twenty μl of reference or test compounds diluted in the culture medium was then added to each well. […] The cells were incubated at 37° C. in a 5% CO2/humidified atmosphere for 24 hr.
d. Alkaline Phosphatase Enzyme Assay:
At the end of treatment, the medium was removed from the plate and […] of assay buffer I was added to each well. The plates were shaken in a titer plate shaker for 15 min. Then 150 μl of assay buffer II was added to each well.
e. Analysis of Results: Analysis of Dose-response Data
For reference and test compounds, a dose response curve is generated for dose (X-axis) vs. the rate of enzyme reaction (slope) (Y-axis). Square root-transformed data are used for analysis of variance and nonlinear dose response curve fitting for both agonist and antagonist modes. Huber weighting is used to downweight the effects of outliers. EC50 or IC50 values are calculated from the retransformed values.

[2] = system: rat uterine decidualization; experiment: Rat decidualization assay; type: in vivo; details: for EC50 for uterine wet weight (decidual response), individual studies: ovariectomized female Sprague-Dawley rats, once daily for seven days
Procedure: b. Animals (RACUC Protocol #5002)
The animals are treated once daily for seven days.
Uteri are removed and trimmed of fat.
Body weight: Mean total animal body weight (default-kg)
Decidual response: [(D−C)/C]×100%

T47D cells = experiment: T47D cell proliferation assay (BrdU incorporation); type: cell-based
Procedure: 3. T47D cell Proliferation Assay
The objective of this assay is the determination of progestational and antiprogestational potency by using a cell proliferation assay in T47D cells. A compound's effect on DNA synthesis in T47D cells is measured.
a. Growth Medium: DMEM:F12 (1:1) (GIBCO, BRL) supplemented with 10% (v/v) fetal bovine serum (not heat-inactivated), 100 U/ml penicillin, […], and 2 mM GlutaMax (GIBCO, BRL).
b. Treatment Medium: Minimum Essential Medium (MEM) (#51200-038GIBCO, BRL) phenol red-free supplemented with 0.5% charcoal stripped fetal bovine serum, 100 U/ml penicillin, […] streptomycin, and 2 mM GlutaMax (GIBCO, BRL).
Stock T47 D cells are maintained in growth medium. […]
At the end of BrdU labeling, the medium is removed and BrdU incorporation is measured using a cell proliferation ELISA kit (#RPN 250, Amersham Life Science) according to manufacturer's instructions. […] Then 25 μl of 1 M sulfuric acid is added to each well to stop color reaction and optical density is read in a plate reader at 450 nm within 5 min.
Square root-transformed data are used for analysis of variance and nonlinear dose response curve fitting for both agonist and antagonist modes. […] EC50 or IC50 values are calculated from the retransformed values. […]

SMILES | EC50 [1] [nM] | EC50 for uterine wet weight (decidual response), individual studies ([2]; s.c.) | other results
Cn1c(C#N)ccc1-c1ccc2c(c1)C(C)(C)OC(=S)N2 [5-(4,4-dimethyl-2-thioxo-1,4-dihydro-2H-3,1-benzoxazin-6-yl)-1-methyl-1H-pyrrole-2-carbonitrile] | – | – | AR agonistic activity (androgen receptor (AR); at the maximum concentration tested (10 nM)): only marginal agonistic activity; AR antagonistic activity (androgen receptor (AR); nine point dose response, co-treated with 3 nM DHT): significant antagonistic activity; Acne vulgaris outcome (acne vulgaris; after about 24 weeks): improvement in the acne vulgaris is observed; Presence of lesions caused by acne vulgaris (acne vulgaris; forty-five to sixty days after the treatment): a decrease in the presence of lesions caused by acne vulgaris is noticed; Eczema outcome (eczema; after about 12 weeks): improvement in the eczema is observed; Dryness of the skin (eczema; thirty days after the treatment): a decrease in the dryness affected to the skin is noticed
Cn1c(C#N)ccc1-c1ccc2c(c1)C1(CCCCC1)OC(=S)N2 [Example 4, 1-Methyl-5-(2-thioxo-1,2-dihydrospiro[3,1-benzoxazine-4,1′-cyclohexan]-6-yl)-1H-pyrrole-2-carbonitrile] | 0.3 | – | –
CCC1(CC)OC(=S)Nc2ccc(-c3ccc(C#N)n3C)cc21 [Example 2, 5-(4,4-Diethyl-2-thioxo-1,4-dihydro-2H-3,1-benzoxazin-6-yl)-1-methyl-1H-pyrrole-2-carbonitrile] | 0.1 | – | –
C#C[C@]1(O)CC[C@H]2[C@@H]3CCC4=CC(=O)CC[C@@H]4[C@H]3CC[C@@]21CC [Levonorgestrel] | – | 0.08 mg/kg, s.c. and 0.12 mg/kg, s.c. and 0.09 mg/kg, s.c. (2×) | –
Cn1c(C#N)ccc1-c1ccc2c(c1)C1(CCC1)OC(=S)N2 [Example 1, 1-Methyl-5-(2-thioxo-1,2-dihydrospiro[3,1-benzoxazine-4,1′-cyclobutan]-6-yl)-1H-pyrrole-2-carbonitrile] | 0.5 | – | –
Cn1c(C#N)ccc1-c1ccc2c(c1)C(C(F)(F)F)(C(F)(F)F)OC(=S)N2 [Example 6, 1-Methyl-5-[2-thioxo-4,4-bis(trifluoromethyl)-1,4-dihydro-2H-3,1-benzoxazin-6-yl]-1H-pyrrole-2-carbonitrile] | < 10 | – | –
C[C@H](O)C(=O)[C@@]1(C)CC[C@H]2[C@@H]3CCC4=CC(=O)CCC4=C3CC[C@@]21C [Trimegestone] | – | – | EC50 (T47D cells; agonist mode, individual studies, read-out: EC50 (half-maximal increase in BrdU incorporation)): 0.017 nM and 0.014 nM and 0.019 nM
C#C[C@]1(O)CC[C@H]2[C@@H]3CCC4=CC(=O)CC[C@@H]4[C@H]3C(=C)C[C@@]21CC [3-Ketodesogestrel] | – | 0.10 mg/kg, s.c. and 0.06 mg/kg, s.c. and 0.11 mg/kg, s.c. | Estimated average EC50 for uterine weight (decidual response) ([2]; average of dose-response curves, ovariectomized rats, s.c.): 0.10 mg/kg, s.c.
Cn1c(C#N)ccc1-c1ccc2c(c1)C1(CCCC1)OC(=S)N2 [Example 5, 1-Methyl-5-(2-thioxo-1,2-dihydrospiro [3,1-benzoxazine-4,1′-cyclopentan]-6-yl)-1H-pyrrole-2-carbonitrile] | 0.5 | – | –
CC#C[C@]1(O)CC[C@H]2[C@@H]3CCC4=CC(=O)CCC4=C3[C@@H](c3ccc(N(C)C)cc3)C[C@@]21C [RU486] | – | – | IC50 (T47D cells; read-out: IC50 (half-maximal decrease in trimegestone induced BrdU incorporation), antagonist mode, in the presence of 0.03 nM trimegestone): 0.016 nM and 0.018 nM; IC50 for uterine weight (decrease in EC50 progesterone induced decidual response) ([2]; ovariectomized rats, p.o., with EC50 dose of progesterone): 0.21 mg/kg, p.o. and 0.14 mg/kg, p.o.
CC(=O)[C@H]1CC[C@H]2[C@@H]3CCC4=CC(=O)CC[C@]4(C)[C@H]3CC[C@]12C [Progesterone] | – | 5.50 mg/kg, s.c. | –
CC(=O)O[C@]1(C(C)=O)CC[C@H]2[C@@H]3C[C@H](C)C4=CC(=O)CC[C@]4(C)[C@H]3CC[C@@]21C [MPA, medroxyprogesterone acetate] | – | 0.42 mg/kg, s.c. and 0.39 mg/kg, s.c. (2×) | –
CCC1(C)OC(=S)Nc2ccc(-c3ccc(C#N)n3C)cc21 (centres unmarked) [Example 3, 5-(4-ethyl-4-methyl-2-thioxo-1,4-dihydro-2H-3,1-benzoxazin-6-yl)-1-methyl-1H-pyrrole-2-carbonitrile] | 0.1 | – | –
